Results: article PMC12225141 (BMC Chemistry, 2025)

Target: calf intestinal alkaline phosphatase (cIAP) (Bos taurus, UniProt P19111)
Assay: spectrophotometric p-NPP hydrolysis assay at […] nm, commercial cIAP
Format: biochemical

calf intestinal alkaline phosphatase (cIAP), sequence (P19111 20-506): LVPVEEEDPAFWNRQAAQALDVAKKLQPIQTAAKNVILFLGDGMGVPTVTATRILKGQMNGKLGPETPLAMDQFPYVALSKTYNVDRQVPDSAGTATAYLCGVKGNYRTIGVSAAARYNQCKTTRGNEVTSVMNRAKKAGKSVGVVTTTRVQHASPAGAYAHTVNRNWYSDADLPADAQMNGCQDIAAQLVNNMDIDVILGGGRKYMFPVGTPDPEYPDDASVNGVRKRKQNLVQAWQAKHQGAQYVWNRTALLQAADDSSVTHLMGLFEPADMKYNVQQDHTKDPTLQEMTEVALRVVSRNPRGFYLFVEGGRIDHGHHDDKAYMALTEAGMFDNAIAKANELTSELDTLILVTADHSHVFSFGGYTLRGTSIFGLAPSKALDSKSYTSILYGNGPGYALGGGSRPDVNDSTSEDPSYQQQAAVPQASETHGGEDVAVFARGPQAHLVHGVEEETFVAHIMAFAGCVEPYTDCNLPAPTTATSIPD

IC50: 9.875 ± 0.05 µM
SMILES: CCNC(=S)NC(=O)c1cccc2ccccc12 [NA-MT, N-(ethylcarbamothioyl)-1-naphthamide]
